Measurements taken from BigSolDB 2.1.

Cc1ccc(S(N)(=O)=O)cc1
Conditions	solubility (mole fraction)
in acetone, 273.15 K	0.128
in acetone, 279.15 K	0.137
in acetone, 283.65 K	0.144
in acetone, 289.15 K	0.154
in acetone, 293.65 K	0.163
in acetone, 298.85 K	0.173
in acetone, 303.25 K	0.184
in acetone, 308.95 K	0.197
in acetone, 313.15 K	0.211
in acetone, 317.65 K	0.227
in acetone, 322.15 K	0.243
in acetonitrile, 273.15 K	0.0408
in acetonitrile, 279.15 K	0.047
in acetonitrile, 284.15 K	0.0538
in acetonitrile, 289.15 K	0.063
in acetonitrile, 294.15 K	0.0722
in acetonitrile, 299.15 K	0.0826
in acetonitrile, 303.65 K	0.093
in acetonitrile, 309.15 K	0.106
in acetonitrile, 313.15 K	0.121
in acetonitrile, 319.15 K	0.143
in acetonitrile, 324.75 K	0.164
in cyclohexanone, 273.15 K	0.122
in cyclohexanone, 279.15 K	0.131
in cyclohexanone, 284.15 K	0.139
in cyclohexanone, 289.15 K	0.147
in cyclohexanone, 294.15 K	0.157
in cyclohexanone, 299.15 K	0.169
in cyclohexanone, 303.65 K	0.18
in cyclohexanone, 309.15 K	0.192
in cyclohexanone, 313.15 K	0.206
in cyclohexanone, 319.15 K	0.226
in cyclohexanone, 324.75 K	0.244
in cyclopentanone, 273.15 K	0.149
in cyclopentanone, 279.15 K	0.158
in cyclopentanone, 284.15 K	0.166
in cyclopentanone, 289.15 K	0.175
in cyclopentanone, 294.15 K	0.185
in cyclopentanone, 299.15 K	0.196
in cyclopentanone, 303.65 K	0.206
in cyclopentanone, 309.15 K	0.218
in cyclopentanone, 313.15 K	0.231
in cyclopentanone, 319.15 K	0.249
in cyclopentanone, 324.75 K	0.266
in dichloromethane, 273.15 K	0.00336
in dichloromethane, 279.15 K	0.00392
in dichloromethane, 284.15 K	0.00458
in dichloromethane, 289.15 K	0.00587
in dichloromethane, 294.15 K	0.00705
in dichloromethane, 299.15 K	0.00877
in dichloromethane, 303.65 K	0.0103
in dichloromethane, 309.15 K	0.0128
in dichloromethane, 312.15 K	0.0143
in ethanol, 273.15 K	0.0174
in ethanol, 279.15 K	0.0203
in ethanol, 283.65 K	0.0233
in ethanol, 289.15 K	0.0268
in ethanol, 293.65 K	0.0312
in ethanol, 298.85 K	0.0361
in ethanol, 303.25 K	0.0425
in ethanol, 308.95 K	0.05
in ethanol, 313.15 K	0.0592
in ethanol, 317.65 K	0.0705
in ethanol, 322.15 K	0.0842
in ethyl acetate, 273.15 K	0.0364
in ethyl acetate, 279.15 K	0.0401
in ethyl acetate, 283.65 K	0.0442
in ethyl acetate, 289.15 K	0.0481
in ethyl acetate, 293.65 K	0.0541
in ethyl acetate, 298.85 K	0.059
in ethyl acetate, 303.25 K	0.0652
in ethyl acetate, 308.95 K	0.0718
in ethyl acetate, 313.15 K	0.0797
in ethyl acetate, 317.65 K	0.0897
in ethyl acetate, 322.15 K	0.1
in ethyl formate, 273.15 K	0.023
in ethyl formate, 279.15 K	0.0268
in ethyl formate, 284.15 K	0.0308
in ethyl formate, 289.15 K	0.0342
in ethyl formate, 294.15 K	0.0391
in ethyl formate, 299.15 K	0.0447
in ethyl formate, 303.65 K	0.0507
in ethyl formate, 309.15 K	0.0582
in ethyl formate, 313.15 K	0.0655
in ethyl formate, 319.15 K	0.0784
in ethyl formate, 324.75 K	0.0914
in isobutanol, 273.15 K	0.00456
in isobutanol, 279.15 K	0.00562
in isobutanol, 283.65 K	0.0069
in isobutanol, 289.15 K	0.00846
in isobutanol, 293.65 K	0.0103
in isobutanol, 298.85 K	0.0124
in isobutanol, 303.25 K	0.016
in isobutanol, 308.95 K	0.0193
in isobutanol, 313.15 K	0.0236
in isobutanol, 317.65 K	0.0288
in isobutanol, 322.15 K	0.0357
in isopentanol, 273.15 K	0.00515
in isopentanol, 279.15 K	0.00618
in isopentanol, 284.15 K	0.00814
in isopentanol, 289.15 K	0.00944
in isopentanol, 294.15 K	0.0114
in isopentanol, 299.15 K	0.0139
in isopentanol, 303.65 K	0.0168
in isopentanol, 309.15 K	0.0204
in isopentanol, 313.15 K	0.0251
in isopentanol, 319.15 K	0.0319
in isopentanol, 324.75 K	0.039
in isopropanol, 273.15 K	0.0077
in isopropanol, 279.15 K	0.00943
in isopropanol, 283.65 K	0.0114
in isopropanol, 289.15 K	0.0137
in isopropanol, 293.65 K	0.0167
in isopropanol, 298.85 K	0.0201
in isopropanol, 303.25 K	0.0246
in isopropanol, 308.95 K	0.0301
in isopropanol, 313.15 K	0.0365
in isopropanol, 317.65 K	0.0447
in isopropanol, 322.15 K	0.0552
in methanol, 273.15 K	0.0316
in methanol, 279.15 K	0.0362
in methanol, 283.65 K	0.0415
in methanol, 289.15 K	0.0473
in methanol, 293.65 K	0.0544
in methanol, 298.85 K	0.0626
in methanol, 303.25 K	0.0724
in methanol, 308.95 K	0.0836
in methanol, 313.15 K	0.0971
in methanol, 317.65 K	0.112
in methanol, 322.15 K	0.131
in methyl acetate, 273.15 K	0.0494
in methyl acetate, 279.15 K	0.0558
in methyl acetate, 284.15 K	0.062
in methyl acetate, 289.15 K	0.0676
in methyl acetate, 294.15 K	0.075
in methyl acetate, 299.15 K	0.0833
in methyl acetate, 303.65 K	0.0925
in methyl acetate, 309.15 K	0.103
in methyl acetate, 313.15 K	0.115
in methyl acetate, 319.15 K	0.132
in methyl acetate, 324.75 K	0.148
in n-butanol, 273.15 K	0.00725
in n-butanol, 279.15 K	0.00871
in n-butanol, 283.65 K	0.0104
in n-butanol, 289.15 K	0.0124
in n-butanol, 293.65 K	0.0148
in n-butanol, 298.85 K	0.0172
in n-butanol, 303.25 K	0.0209
in n-butanol, 308.95 K	0.0253
in n-butanol, 313.15 K	0.0303
in n-butanol, 317.65 K	0.0363
in n-butanol, 322.15 K	0.044
in n-pentanol, 273.15 K	0.00607
in n-pentanol, 279.15 K	0.00712
in n-pentanol, 284.15 K	0.00906
in n-pentanol, 289.15 K	0.0107
in n-pentanol, 294.15 K	0.0128
in n-pentanol, 299.15 K	0.0153
in n-pentanol, 303.65 K	0.0182
in n-pentanol, 309.15 K	0.022
in n-pentanol, 313.15 K	0.0271
in n-pentanol, 319.15 K	0.0343
in n-pentanol, 324.75 K	0.0416
in n-propanol, 273.15 K	0.00916
in n-propanol, 279.15 K	0.0111
in n-propanol, 283.65 K	0.013
in n-propanol, 289.15 K	0.0154
in n-propanol, 293.65 K	0.0183
in n-propanol, 298.85 K	0.0215
in n-propanol, 303.25 K	0.0259
in n-propanol, 308.95 K	0.0312
in n-propanol, 313.15 K	0.0376
in n-propanol, 317.65 K	0.0455
in n-propanol, 322.15 K	0.0554
